{
  "source": "patent US5302599A",
  "about": "“Therapeutically useful heterocyclic indole compounds” (The Upjohn Company, priority 1992, dated 1994)",
  "key": {"[1]": {"target": "T1, 5-hydroxytryptamine (HT1A) receptor (Bos taurus, UniProt F6Q2H9)", "T1 construct": "from tissue; host or cells: bovine brain homogenate", "T1 sequence (F6Q2H9 1-422)": "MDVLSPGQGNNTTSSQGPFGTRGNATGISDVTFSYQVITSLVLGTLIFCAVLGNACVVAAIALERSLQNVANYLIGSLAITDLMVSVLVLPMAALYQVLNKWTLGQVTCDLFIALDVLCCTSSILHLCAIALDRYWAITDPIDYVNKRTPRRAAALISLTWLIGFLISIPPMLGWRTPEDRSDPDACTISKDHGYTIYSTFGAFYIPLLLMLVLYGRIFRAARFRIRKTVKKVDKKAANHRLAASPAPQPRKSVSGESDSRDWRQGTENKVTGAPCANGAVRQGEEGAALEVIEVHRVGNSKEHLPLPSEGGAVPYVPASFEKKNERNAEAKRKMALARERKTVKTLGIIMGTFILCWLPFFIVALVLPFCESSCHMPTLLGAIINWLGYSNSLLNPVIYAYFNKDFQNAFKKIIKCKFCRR", "assay": "Inhibition of 3H-8-OH-DPAT binding in a bovine brain homogenate (5HT1A binding)", "description": "Binding: Inhibition of 3H-8-OH-DPAT binding in a bovine brain homogenate. Potency is given as nanomole (nM) dose required to inhibit 50% of DPAT binding (IC50). This test measures ability to bind to 5-hydroxytryptamine (HT1A ) receptor."}, "dopamine D2 receptors": {"target": "dopamine D2 receptors (Rattus norvegicus, UniProt P61169)", "sequence (P61169 whole entry)": "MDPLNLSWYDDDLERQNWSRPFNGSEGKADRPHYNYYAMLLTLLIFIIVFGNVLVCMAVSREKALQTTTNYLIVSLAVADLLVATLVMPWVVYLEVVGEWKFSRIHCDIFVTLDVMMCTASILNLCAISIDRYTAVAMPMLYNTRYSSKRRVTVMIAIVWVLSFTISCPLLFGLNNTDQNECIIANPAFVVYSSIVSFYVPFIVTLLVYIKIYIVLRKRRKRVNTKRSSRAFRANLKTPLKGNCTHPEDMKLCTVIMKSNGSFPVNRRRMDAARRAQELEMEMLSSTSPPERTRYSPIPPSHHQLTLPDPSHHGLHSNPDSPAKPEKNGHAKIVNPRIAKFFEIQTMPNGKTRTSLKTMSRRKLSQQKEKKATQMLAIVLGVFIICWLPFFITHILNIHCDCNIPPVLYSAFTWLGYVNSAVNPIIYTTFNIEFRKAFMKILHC", "assay": "biochemical", "format": "binding", "excerpt": "For Dopamine (D2): Inhibition of 3H-raclopride binding in rat striata homogenate. […] This test measures the ability to bind to dopamine D2 receptors."}, "[2]": {"assay": "Hypothermia in mice after subcutaneous injection", "format": "in vivo", "conditions": "20 min, dose required to depress temperature (2° C.) in two of four mice, Spearman-Karber; for ED50: Mus musculus, sc", "protocol": "Hypothermia: Starting with a dose of 30 mg/kg, four mice are injected subcutaneously with test compound. Twenty minutes later, the number of animals whose body temperature has decreased by 2° C. or more are counted. […] The time for last statistically significant drug affect on mean body temperature is indicated in minutes. […] Potency is given as mg/kg ED50 (dose required to depress temperature in two of four mice) as measured by Spearman-Karber statistics."}, "[3]": {"conditions": "5HT1A Binding IC50, 3H-8-OH-DPAT"}, "[4]": {"conditions": "read-out: Hypothermia ED50, mice, subcutaneous"}, "[5]": {"conditions": "3H-raclopride, rat striata homogenate, read-out: Dopamine D2-Receptor Binding IC50"}, "[6]": {"conditions": "3H-8-OH-DPAT, read-out: 5HT1A Binding IC50"}, "[7]": {"conditions": "mice, subcutaneous, read-out: Hypothermia ED50"}},
  "note": "Counter-ions that a name gives are not always drawn. Like-named read-outs stand apart in the source and are kept apart here.",
  "data": [
    {"smiles": "NC(=O)c1cc2c3c(ccc2[nH]1)OCC(CN1CCC2(CC1)C(=O)NCN2c1ccccc1)O3", "note": "(stereo not shown) [XIc, 7H-1,4-Dioxino(2,3-e)indole-8-carboxamide, 2,3-dihydro-2-((4-oxo-1-phenyl-1,3,8-triazaspiro(4.5)dec-8-yl)methyl)-]", "values": [
      {"measurement": "IC50", "setting": "[1]; [3]", "value": 0.29, "unit": "nM"}
    ]},
    {"smiles": "N#Cc1cc2c3c(ccc2[nH]1)OCC(CN1CCC2(CC1)C(=O)NCN2c1ccccc1)O3", "note": "(stereo not shown) [XId, 7H-1,4-Dioxino(2,3-e)indole-8-carbonitrile, 2,3-dihydro-2-((4-oxo-1-phenyl-1,3,8-triazaspiro(4.5)dec-8-yl)methyl)-]", "values": [
      {"measurement": "IC50", "setting": "dopamine D2 receptors", "value": 1.53, "unit": "nM"},
      {"measurement": "IC50", "setting": "[1]; [3]", "value": 0.17, "unit": "nM"},
      {"measurement": "ED50", "setting": "[2]; [4]", "value": 0.01, "unit": "mg/kg"}
    ]},
    {"smiles": "COC(=O)c1cc2c3c(ccc2[nH]1)OCC(CN1CCC(Nc2ccccc2)(C(N)=O)CC1)O3", "note": "(stereo not shown) [XIi, 7H-1,4-Dioxino(2,3-e)indole-8-carboxylic acid, 2-((4(aminocarbonyl)-4-(phenylamino)-1-piperidinyl)methyl)-2,3-dihydro-, methyl ester]", "values": [
      {"measurement": "IC50", "setting": "[1]; [3]", "value": 79.3, "unit": "nM"}
    ]},
    {"smiles": "CCOC(=O)C1CCN(CC2COc3ccc4[nH]c(C(=O)OC)cc4c3O2)CC1", "note": "(stereo not shown) [XIh, 7H-1,4-Dioxino(2,3-e)indole-8-carboxylic acid, 2-((4-(ethoxycarbonyl-1-piperidinyl)methyl)-2,3-dihydro-, methyl ester, monohydrochloride]", "values": [
      {"measurement": "IC50", "setting": "dopamine D2 receptors; [5]", "value": 147, "unit": "nM"},
      {"measurement": "IC50", "setting": "[1]; [6]", "value": 9.6, "unit": "nM"},
      {"measurement": "ED50", "setting": "[2]; [7]", "value": "> 30", "unit": "mg/kg"}
    ]},
    {"smiles": "COC(=O)c1cc2c3c(ccc2[nH]1)OCC(CN1CCC2(CC1)C(=O)NCN2c1ccccc1)O3", "note": "(stereo not shown) [XIa, 2,3-dihydro-2-((4-oxo-1-phenyl-1,3,8-triazaspiro(4.5)-dec-8-yl)methyl)-7H-1,4-dioxino(2,3-e)indol-8-methyl ester]", "values": [
      {"measurement": "IC50", "setting": "[1]; [3]", "value": 0.47, "unit": "nM"},
      {"measurement": "ED50", "setting": "[2]; [4]", "value": 30, "unit": "mg/kg"}
    ]},
    {"smiles": "O=C(O)c1cc2c3c(ccc2[nH]1)OCC(CN1CCC2(CC1)C(=O)NCN2c1ccccc1)O3", "note": "(stereo not shown) [b']", "values": [
      {"measurement": "IC50", "setting": "dopamine D2 receptors", "value": 52.2, "unit": "nM"},
      {"measurement": "IC50", "setting": "[1]; [3]", "value": 24.7, "unit": "nM"},
      {"measurement": "Hypothermia ED50", "setting": "[2]; mice, subcutaneous", "value": 30.0, "unit": "mg/kg"}
    ]},
    {"smiles": "COC(=O)c1cc2c3c(ccc2[nH]1)OCC(CNCCCc1ccccc1)O3", "note": "(stereo not shown) [XIj, 7H-1,4-Dioxino(2,3-e)indole-8-carboxylic acid, 2,3-dihydro-2-((3-phenylpropyl)amino)methyl)-, methyl ester, monohydrochloride]", "values": [
      {"measurement": "IC50", "setting": "dopamine D2 receptors; [5]", "value": 54.6, "unit": "nM"},
      {"measurement": "IC50", "setting": "[1]; [6]", "value": 4, "unit": "nM"},
      {"measurement": "ED50", "setting": "[2]; [7]", "value": 1.3, "unit": "mg/kg"}
    ]},
    {"smiles": "O=C1NCN(c2ccccc2)C12CCN(CC1COc3ccc4[nH]c(CO)cc4c3O1)CC2", "note": "(stereo not shown) [XIl, 1,3,8-Triazaspiro(4.5)decan-4-one, 8-((2,3-dihydro-8-(hydroxymethyl)-7H-1,4-dioxino(2,3-e)indol-2-yl)methyl)-1-phenyl-]", "values": [
      {"measurement": "IC50", "setting": "[1]; [3]", "value": 2.3, "unit": "nM"}
    ]},
    {"smiles": "O=C(OCc1ccccc1)c1cc2c3c(ccc2[nH]1)OCC(CN1CCC2(CC1)C(=O)NCN2c1ccccc1)O3", "note": "(stereo not shown) [XIf, 7H-1,4-Dioxino(2,3-e)indole-8-carboxylic acid, 2,3-dihydro-2-((4-oxo-1-phenyl-1,3,8-triazaspiro(4.5)dec-8-yl)methyl)-, phenylmethyl ester]", "values": [
      {"measurement": "IC50", "setting": "dopamine D2 receptors; [5]", "value": 190, "unit": "nM"},
      {"measurement": "IC50", "setting": "[1]; [3]", "value": 8.4, "unit": "nM"},
      {"measurement": "ED50", "setting": "[2]; [4]", "value": 17.3, "unit": "mg/kg"}
    ]},
    {"smiles": "C=CCN1CN(c2ccccc2)C2(CCN(CC3COc4ccc5[nH]c(C(=O)OC)cc5c4O3)CC2)C1=O", "note": "(stereo not shown) [XIp, 7H-1,4-Dioxino(2,3-e)indole-8-carboxylic acid, 2,3-dihydro-2-((4-oxo-1-phenyl-3-(2-propenyl)-1,3,8-triazaspiro(4.5)dec-8-yl)methyl)-, methyl ester]", "values": [
      {"measurement": "IC50", "setting": "[1]; [3]", "value": 11, "unit": "nM"}
    ]},
    {"smiles": "COC(=O)c1cc2c3c(ccc2[nH]1)OCC(CN1CCC(n2c(=O)[nH]c4ccccc42)CC1)O3", "note": "(stereo not shown) [XIg, 7H-1,4-Dioxino(2,3-e)indole-8-carboxylic acid, 2-((4-(2,3-dihydro-2-oxo-1H-benzimidazol-1-yl)-1-piperidinyl)methyl)-2,3-dihydro-, methyl ester, monohydrochloride]", "values": [
      {"measurement": "IC50", "setting": "[1]; [3]", "value": 3.7, "unit": "nM"}
    ]},
    {"smiles": "C=CCn1c(C(=O)OC)cc2c3c(ccc21)OCC(CN1CCC2(CC1)C(=O)NCN2c1ccccc1)O3", "note": "(stereo not shown) [XIn, 7H-1,4-Dioxino(2,3-e)indole-8-carboxylic acid, 2,3-dihydro-2-((4-oxo-1-phenyl-1,3,8-triazaspiro(4.5)dec-8-yl)methyl)-7-(2-propenyl)-, methyl ester]", "values": [
      {"measurement": "IC50", "setting": "[1]; [3]", "value": 268, "unit": "nM"}
    ]},
    {"smiles": "C=CCN1CN(c2ccccc2)C2(CCN(CC3COc4ccc5c(cc(C(=O)OC)n5CC=C)c4O3)CC2)C1=O", "note": "(stereo not shown) [XIo, 7H-1,4-Dioxino(2,3-e)indole-8-carboxylic acid, 2,3-dihydro-2-((4-oxo-1-phenyl-3-(2-propenyl)-1,3,8-triazaspiro(4.5)dec-8-yl)methyl)-7-(2-propenyl)-, methyl ester]", "values": [
      {"measurement": "IC50", "setting": "dopamine D2 receptors", "value": 97.3, "unit": "nM"},
      {"measurement": "IC50", "setting": "[1]; [3]", "value": 280, "unit": "nM"}
    ]},
    {"smiles": "COC(=O)C1Cc2c(ccc3c2OC(CN2CCC4(CC2)C(=O)NCN4c2ccccc2)CO3)N1", "note": "(stereo not shown) [a', 7H-1,4-Dioxino(2,3-e)indole-8-carboxylic acid 2,3,8,9-tetrahydro-2-((4-oxo-1-phenyl-1,3,8-triazaspiro(4.5)dec-8-yl)methyl)-, methyl ester]", "values": [
      {"measurement": "ED50", "setting": "[2]; [4]", "value": 17.3, "unit": "mg/kg"}
    ]},
    {"smiles": "O=C1NCN(c2ccccc2)C12CCN(CC1COc3ccc4[nH]ccc4c3O1)CC2", "note": "(stereo not shown) [XIm, 1,3,8-Triazaspiro(4.5)decan-4-one, 8-((2,3-dihydro-7H-1,4-dioxino(2,3-e)indol-2-yl)methyl)-1-phenyl]", "values": [
      {"measurement": "IC50", "setting": "dopamine D2 receptors", "value": 0.13, "unit": "nM"},
      {"measurement": "IC50", "setting": "[1]; [3]", "value": 1, "unit": "nM"}
    ]},
    {"smiles": "CCCCOC(=O)c1cc2c3c(ccc2[nH]1)OCC(CN1CCC2(CC1)C(=O)NCN2c1ccccc1)O3", "note": "(stereo not shown) [XIe, 7H-1,4-Dioxino(2,3-e)indole-8-carboxylic acid, 2,3-dihydro-2-((4-oxo-1-phenyl-1,3,8-triazaspiro(4.5)dec-8-yl)methyl)-, butyl ester]", "values": [
      {"measurement": "IC50", "setting": "[1]; [3]", "value": 13.5, "unit": "nM"}
    ]},
    {"smiles": "O=C(O)c1cc2c3c(ccc2[nH]1)OCC(CN1CCC2(CC1)C(=O)NCN2c1ccccc1)O3", "note": "(stereo not shown) [XIb]", "values": [
      {"measurement": "IC50", "setting": "[1]; [3]", "value": 36.3, "unit": "nM"},
      {"measurement": "ED50", "setting": "[2]; [4]", "value": 17.3, "unit": "mg/kg"}
    ]},
    {"smiles": "Cl.O=C(NCCCc1ccccc1)c1cc2c3c(ccc2[nH]1)OCC(CNCCCc1ccccc1)O3", "note": "(stereo not shown) [XIk, 7H-1,4-Dioxino(2,3-e)indole-8-carboxamide, 2,3-dihydro-N-(3-phenylpropyl)-2-(((3-phenylpropyl)amino)methyl)-, monohydrochloride]", "values": [
      {"measurement": "IC50", "setting": "dopamine D2 receptors; [5]", "value": 350, "unit": "nM"},
      {"measurement": "IC50", "setting": "[1]; [6]", "value": 26, "unit": "nM"},
      {"measurement": "ED50", "setting": "[2]; [7]", "value": "> 30", "unit": "mg/kg"}
    ]}
  ]
}
